We go through 30 compounds from EP3227262B1, “SULFIDE ALKYL AND PYRIDYL REVERSE SULFONAMIDE COMPOUNDS FOR HBV TREATMENT” (Novira Therapeutics Inc., priority 2014, dated 2016).

This assay relates to HBV. As to the kind of experiment: Inhibition of HBV replication dot-blot assay in HBV-producing hepatoma cell line. The assay is classed as cell-based. The conditions noted are these: Hepatitis B virus, 144 h; activity in Dot-Blot assay; HepG2-2.2.15 cells; reduction in HBV DNA levels, six days. As to the method:
Compounds active in the HBV assembly assay are tested for their activity and toxicity in cellular assay. In the first anti-viral assay, the ability of compounds to inhibit HBV replication in an HBV-producing hepatoma cell line using the dot-blot method is evaluated.
(§1) Briefly, confluent monolayers of HepG2-2.2.15 cells are incubated with complete medium containing various concentrations of a test compound. Three days later, the culture medium is replaced with fresh medium containing the appropriately diluted test compound. Six days following the initial administration of the test compound, the cell culture supernatant is collected, and cell lysis is performed. The samples are applied onto Nylos membranes and DNA is immobilized to the membrane by UV cross-linking. After pre-hybridization, the HBV probe is added and the hybridization is performed overnight. The membranes are exposed to the KODAK films; antiviral activity is calculated from the reduction in HBV DNA levels (EC50). The EC50 for antiviral activity is calculated from the dose response curves of active compounds. Assay performance over time is monitored by the use of the standard positive control compounds ETV, BAY 41-4109, and HAP-1.
Selected compounds are tested for their activity and toxicity in cellular assay. In the first anti-viral assay, the ability of compounds to inhibit HBV replication in an HBV-producing hepatoma cell line using the dot-blot method is evaluated.
as §1, with “Confluent monolayers” for “Briefly, confluent monolayers”, “lysis was” for “lysis is”
The EC50 is the midpoint of the concentration-response curve. Low values mean a more potent agent, high ones a less potent agent. `O=C(Nc1ccc(F)c(Cl)c1)c1cccc(SC2CCC(O)CC2)c1` (mixture of isomers) [Compound 34, (cis/trans)-N-(3-Chloro-4-fluorophenyl)-3-((4-hydroxycyclohexyl)thio)benzamide] gave an EC50 of less than 10 µM.

Consider `O=C(Nc1ccc(F)c(Cl)c1)c1ccc(F)c(SC2CC(C(=O)O)C2)c1` (mixture of isomers) [Compound 58, (cis/trans)-3-((5-((3-Chloro-4-fluorophenyl)carbamoyl)-2-fluorophenyl)thio)cyclobutanecarboxylic acid], for which the EC50 was less than 10 µM.

For `O=C(Nc1ccc(F)c(F)c1)c1ccc(F)c(SC2CC(C(=O)O)C2)c1` (mixture of isomers) [Compound 59, (cis/trans)-3-((5-((3,4-Difluorophenyl)carbamoyl)-2-fluorophenyl)thio)cyclobutanecarboxylic acid], the EC50 was less than 10 µM.

The compound `O=C(Nc1ccc(F)c(Cl)c1)c1ccc(F)c(SC2CCC(C(=O)O)CC2)c1` (mixture of isomers) [Compound 61, (cis/trans)-4-((5-((3-Chloro-4-fluorophenyl)carbamoyl)-2-fluorophenyl)thio)cyclohexanecarboxylic acid] displayed an EC50 of less than 10 µM.

In turn, `COc1ccc(C(=O)Nc2ccc(F)c(Cl)c2)cc1SC1CCC(O)CC1` (mixture of isomers) [Compound 70, (cis/trans)-N-(3-Chloro-4-fluorophenyl)-3-((4-hydroxycyclohexyl)thio)-4-methoxybenzamide] returned an EC50 of less than 10 µM.

For the compound `O=C(Nc1ccc(F)c(Cl)c1)c1ccc(Cl)c(SC2CCC(O)CC2)c1` (mixture of isomers) [Compound 75, (cis/trans)-4-Chloro-N-(3-chloro-4-fluorophenyl)-3-((4-hydroxycyclohexyl)thio)benzamide], the EC50 is less than 10 µM.

As for `Cc1ccc(C(=O)Nc2cc(F)c(F)c(F)c2)cc1SC1CCC(O)CC1` (mixture of isomers) [Compound 77, (cis/trans)-3-((4-Hydroxycyclohexyl)thio)-4-methyl-N-(3,4,5-trifluorophenyl)benzamide], the EC50 was less than 10 µM.

`O=C(Nc1cc(F)c(F)c(F)c1)c1ccc(Cl)c(SC2CCC(O)CC2)c1` (mixture of isomers) [Compound 81, (cis/trans)-4-Chloro-3-((4-hydroxycyclohexyl)thio)-N-(3,4,5-trifluorophenyl)benzamide] displayed an EC50 of less than 10 µM.

As to `COc1ccc(C(=O)Nc2cc(F)c(F)c(F)c2)cc1SC1CCC(O)CC1` (mixture of isomers) [Compound 84, (cis/trans)-3-((4-Hydroxycyclohexyl)thio)-4-methoxy-N-(3,4,5-trifluorophenyl)benzamide], the EC50 was less than 10 µM.

In turn, `O=C(Nc1ccc(F)c(F)c1)c1ccc(Cl)c(SC2CCC(O)CC2)c1` (mixture of isomers) [Compound 87, (cis/trans)-4-Chloro-N-(3,4-difluorophenyl)-3-((4-hydroxycyclohexyl)thio)benzamide] gave an EC50 of less than 10 µM.

As for `COc1ccc(C(=O)Nc2ccc(F)c(F)c2)cc1SC1CCC(O)CC1` (mixture of isomers) [Compound 89, (cis/trans)-N-(3,4-Difluorophenyl)-3-((4-hydroxycyclohexyl)thio)-4-methoxybenzamide], the EC50 is less than 10 µM.

`N#Cc1ccc(C(=O)Nc2ccc(F)c(F)c2)cc1SC1CCC(O)CC1` (mixture of isomers) [Compound 93, (cis/trans)-4-Cyano-N-(3,4-difluorophenyl)-3-((4-hydroxycyclohexyl)thio)benzamide] showed an EC50 of less than 10 µM.

With `N#Cc1ccc(C(=O)Nc2ccc(F)c(Cl)c2)cc1SC1CCC(O)CC1` (mixture of isomers) [Compound 95, (cis/trans)-N-(3-Chloro-4-fluorophenyl)-4-cyano-3-((4-hydroxycyclohexyl)thio)benzamide], the EC50 is less than 10 µM.

As for `CN(C)C(=O)C1CCC(Sc2cc(C(=O)Nc3cc(F)c(F)c(F)c3)ccc2F)CC1` (mixture of isomers) [Compound 103, (cis/trans)-3-((4-(Dimethylcarbamoyl)cyclohexyl)thio)-4-fluoro-N-(3,4,5-trifluorophenyl)benzamide], the EC50 was less than 10 µM.

Consider `O=C(Nc1cc(F)c(F)c(F)c1)c1ccc(F)c(SC2CCC(C(=O)N3CCCCC3)CC2)c1` (mixture of isomers) [Compound 104, (cis/trans)-4-Fluoro-3-((4-(piperidine-1-carbonyl)cyclohexyl)thio)-N-(3,4,5-trifluorophenyl)benzamide], for which the half-maximal effective concentration (EC50) was less than 10 µM.

`O=C(O)CC1CCC(Sc2cc(C(=O)Nc3ccc(F)c(Cl)c3)ccc2F)CC1` (mixture of isomers) [Compound 106, (cis/trans)-2-(4-((5-((3-Chloro-4-fluorophenyl)carbamoyl)-2-fluorophenyl)thio)cyclohexyl)acetic acid] yielded an EC50 of less than 10 µM.

`O=C(O)CC1CCC(Sc2cc(C(=O)Nc3cc(F)c(F)c(F)c3)ccc2F)CC1` (mixture of isomers) [Compound 107, (cis/trans)-2-(4-((5-((3,4,5-trifluorophenyl)carbamoyl)-2-fluorophenyl)thio)cyclohexyl)acetic acid] returned an EC50 of less than 10 µM.

Consider `O=C(Nc1cc(F)c(F)c(F)c1)c1ccc(F)c(SC2CCC(C(=O)N3CCNCC3)CC2)c1` (mixture of isomers) [Compound 108, (cis/trans)-4-Fluoro-3-((4-(piperazine-1-carbonyl)cyclohexyl)thio)-N-(3,4,5-trifluorophenyl)benzamide], for which the EC50 is less than 10 µM.

With `O=C(Nc1ccc(F)c(Cl)c1)c1ccc(F)c(SCC2CCC(C(=O)O)CC2)c1` (mixture of isomers) [Compound 109, (cis/trans)-4-(((5-((3-Chloro-4-fluorophenyl)carbamoyl)-2-fluorophenyl)thio)methyl)cyclohexanecarboxylic acid], the EC50 is less than 10 µM.

On to `O=C(Nc1cc(F)c(F)c(F)c1)c1ccc(F)c(SCC2CCC(C(=O)O)CC2)c1` (mixture of isomers) [Compound 110, (cis/trans)-4-(((5-((3,4,5-trifluorophenyl)carbamoyl)-2-fluorophenyl)thio)methyl)cyclohexanecarboxylic acid], for which the EC50 is less than 10 µM.

Regarding `O=C1CCCCC(Sc2cc(C(=O)Nc3cc(F)c(F)c(F)c3)ccc2F)C1` (racemic) [Compound 12, (±)-4-Fluoro-3-((3-oxocydoheptyl)thio)-N-(3,4,5-trifluorophenyl)benzamide], the EC50 was less than 10 µM.

In turn, `O=C1CCCCC(Sc2cc(C(=O)Nc3ccc(F)c(Cl)c3)ccc2F)C1` (racemic) [Compound 13, (±)-N-(3-Chloro-4-fluorophenyl)-4-fluoro-3-((3-oxocycloheptyl)thio)benzamide] showed a half-maximal effective concentration (EC50) of less than 10 µM.

Turning to `O=C(Nc1cc(F)c(F)c(F)c1)c1ccc(F)c(S[C@H]2CCCC[C@@H](O)C2)c1` (racemic) [Compound 14A, (±)-4-Fluoro-3-(((1S,3R)-3-hydroxycycloheptyl)thio)-N-(3,4,5-trifluorophenyl)benzamide], the EC50 was less than 10 µM.

Turning to `O=C(Nc1cc(F)c(F)c(F)c1)c1ccc(F)c(S[C@@H]2CCCC[C@@H](O)C2)c1` (racemic) [Compound 14B, (±)-4-Fluoro-3-(((1R,3R)-3-hydroxycycloheptyl)thio)-N-(3,4,5-trifluorophenyl)benzamide], the EC50 was less than 10 µM.

`O=C(Nc1cc(F)c(F)c(F)c1)c1ccc(F)c(SC2CCCCC(F)C2)c1` (racemic) [Compound 15, (±)-4-Fluoro-3-((3-fluorocycloheptyl)thio)-N-(3,4,5-trifluorophenyl)benzamide] yielded a concentration for a half-maximal effect (EC50) of less than 10 µM.

Compound `O=C1CCCC(Sc2cc(C(=O)Nc3ccc(F)c(Cl)c3)ccc2F)C1` (racemic) [Compound 20, (±)N-(3-Chloro-4-fluorophenyl)-4-fluoro-3-((3-oxocyclohexyl)thio)benzamide] returned an EC50 of less than 10 µM.

For `O=C(Nc1ccc(F)c(Cl)c1)c1ccc(F)c(S[C@@H]2CCC[C@@H](O)C2)c1` (racemic) [Compound 21, (±)-N-(3-Chloro-4-fluorophenyl)-4-fluoro-3-(((1R,3R)-3-hydroxycyclohexyl)thio)benzamide], the EC50 is less than 10 µM.

As to `O=C1CCC(Sc2cc(C(=O)Nc3ccc(F)c(Cl)c3)ccc2F)C1` (racemic) [Compound 22, (±)-N-(3-Chloro-4-fluorophenyl)-4-fluoro-3-((3-oxocyclopentyl)thio)benzamide], the EC50 is less than 10 µM.

The compound `O=C(Nc1ccc(F)c(Cl)c1)c1ccc(F)c(S[C@H]2CC[C@H](O)C2)c1` (racemic) [Compound 25, (±)-N-(3-Chloro-4-fluorophenyl)-4-fluoro-3-(((1S,3S)-3-hydroxycyclopentyl)thio)benzamide] came in with an EC50 of less than 10 µM.

`O=C(Nc1ccc(F)c(Cl)c1)c1ccc(F)c(SCC2CCOC2)c1` (racemic) [Compound 46, (±)-N-(3-Chloro-4-fluorophenyl)-4-fluoro-3-(((tetrahydrofuran-3-yl)methyl)thio)benzamide] gave an EC50 of less than 10 µM.
